“Also recorded” adds a separate entry of the source.
Legend:
[1] = tested on: Supt-1 T-cells; test: Microphotographs of treated Supt-1 T-cells (FIG. 3); type: cell-based; settings: 0.25 μM auranofin with submicromolar BSO (FIG. 3)
Text: FIG. 3 is microphotographs of Supt-1 T-cells treated with different concentrations of auranofin or buthionine sulfoximine.

[2] = tested on: Supt-1 T-cells; test: Viability of Supt-1 T-cells (MTS assay, FIGS. 2 and 6); type: cell-based
Experimental: FIG. 2 is a graph showing the viability of Supt-1 T-cells treated with different concentrations of auranofin (AU) or buthionine sulfoximine (BSO). Viability was measured 72 hours after treatment with the drugs at the indicated concentrations with the MTS assay. Absorbance values were normalized over untreated controls and expressed as percentage. BSO=buthionine sulfoximine. Concentrations are expressed in μM. Data are expressed as mean t SEM and were analysed by the Turkey posttest following One Way ANOVA. *P<0.05; **P<0.01 ***P<0.001; ****P<0.0001. NS: non-significant. The synergistic index (SI) is expressed where significant differences exist in comparison with the single drug treatments.
FIG. 6 is a graph showing the viability of Supt-1 T-cells treated with different concentrations of cisplatin or buthionine sulfoximine (BSO). Viability was measured 72 hours after treatment with the drugs at the indicated concentrations with the MTS assay. Absorbance values were normalized over untreated controls and expressed as percentage. BSO=buthionine sulfoximine. Concentrations are expressed in μM; Asterisks show the significant differences [*q<0.05; **q<0.01; q is the P value corrected for multiple comparisons by controlling the False Discovery Rate (threshold for significance=q=0.05)]. NS: non-significant. The synergistic index (SI) is expressed where significant differences exist in comparison with the single drug treatments.
(§1) In-vitro activity on activated CD4^+ T-cells and leukemia/lymphoma Methods. Resting CD4^+ T-cells, cultured T-cell leukemic Jurkat cells and Sup-T1 cells were left untreated or incubated for 24-72 hours with various concentrations of auranofin and/or buthionine sulfoximine (BSO), or chloroquine (only CD4^+ T-cells) or cisplatin (only Jurkat and Supt-T1 cells) CD4^+ T-cells were then activated by adding phytohemagglutinin (2 μg/mL). Alternatively, CD4^+ T-cells were first activated with anti-CD3/anti-CD28 beads and, after 72 hours, were left untreated or were incubated with auranofin and/or buthionine sulfoximine (BSO), or chloroquine. Cell viability was determined 24-72 hours post-activation with an MTT assay (CellTiter 96@ Non-Radioactive Cell Proliferation Assay) or MTS assay (CellTiter 960 AQueous One Solution Cell Proliferation Assay System; Promega). For the assay, 300×10^5 cells were re-suspended in 100 μL of medium and transferred to a 96-well plate. Cells were then incubated with 20 μL of a substrate solution (One Solution Reagent) for 3-4 hours in a CO2 (5%) incubator at 37° C. For the MTT assay, 100 μL of a Solubilization/Stop Solution were used to stop the reaction. Medium-only containing wells were included to serve as a blank control. Absorbance levels were recorded at 490 nm (MTS) or 570 nm (MTT) and, after subtraction of the blank, absorbance values were expressed as percentage of controls.
(§2) Results. The results from the new dosage combinations were compared to the untreated cells as well as the cells treated with single drugs or “classical” dosages, in a multiple comparison analysis. Thus, the statistical significances shown are also significant compared to the untreated cells.

[3] = tested on: Jurkat T-cells; test: Microphotographs of treated Jurkat T-cells (FIG. 5); type: cell-based; settings: auranofin at a clinically-acceptable concentration added to BSO and cisplatin (FIG. 5)
Text: FIG. 5 is microphotographs of Jurkat T-cells treated with different concentrations of cisplatin, auranofin or buthionine sulfoximine (BSO).

[4] = BSO 500 mg/kg intraperitoneally; cisplatin 6 or 9 mg/kg; cited from earlier work
[5] = tested on: MKN-28 cells; settings: BSO 5, 10 and 25 mM; cisplatin 0.1-3.0 μg/ml; cited from earlier work
[6] = tested on: glutathione levels; settings: Malaker et al. 1994; cited from earlier work
[7] = tested on: cellular GSH; settings: 1.5 g/m^2 BSO at 12 hour intervals for six doses, alone or with 15 mg/m^2 melphalan; cited from earlier work
[8] = tested on: MKN-45 cells; settings: BSO 5, 10 and 25 mM; cisplatin 0.01-1 μg/ml; cited from earlier work
[9] = tested on: HIV; test: Theoretical clinical example, HIV patient, with computational simulation of the viral reservoir; set-up: species or system human; settings: auranofin 6 mg bid six months plus low-dose BSO (three one-week cycles, 0.08 g orally every 6 hours) with ART; baseline 22 copies/10^6 CD4^+ T-cells
Text: A simulation of the viral load (RNA copies/ml) and viral reservoir (L cells) dynamics in a human model is provided. The trend of productively infected cells (T*) is also shown. The simulation is based on the five differential equations model in Rong and Perelson (2009). The peaks in the viral load correspond to the periods of activation of latently infected CD4+ T-cells. For starting data see Rong and Perelson (2009). Different proliferation rates (p) are shown (day^−1), corresponding to different drug treatments, or absence of any treatment. The bottom three panels depict a scenario without the drugs, with p=1.4 day^−1. The effects of BSO in combination with auranofin at plasma molar ratios (BSO/auranofin) of 1:0.25 (top three panels), 1:0.5 (second line of panels from top), 1:1 (third line of panels from top) are simulated. The plasma concentration of auranofin is […]. The activation function adopted to simulate lymphocyte encounter with antigens is illustrated in Rong and Perelson (2009).
The following is a theoretical example for a typical situation wherein the BSO is used at a reduced concentration, with a clinically-acceptable dosage of auranofin to treat a patient with an HIV diagnosis.
Patient received an HIV diagnosis in 2008. […]
The patient is subjected to quantification of viral DNA, the result of which is 22 copies/10^6 CD4^+ T-cells. […]

[10] = 5 mmol/kg (equivalent to 111.5 mg/kg) BSO 12 hours before the chemotherapeutic agent; cited from earlier work
[11] = tested on: SIVmac251; settings: auranofin 0.4 mg/kg/day and BSO 450 mg/kg in combination with ART; cited from earlier work
[12] = tested on: murine mammary carcinoma cell line; settings: auranofin/submicromolar BSO combination; cited from earlier work
[13] = tested on: activated CD4^+ T-cells; test: Viability of activated primary CD4+ T-cells (MTT assay, FIG. 1); type: cell-based
Experimental: FIG. 1 is a graph showing the viability of activated primary CD4^+ T-cells treated with different concentrations of auranofin and buthionine sulfoximine (BSO), measured with the MTT assay. The cells were pre-incubated with the drugs for 24 hours and then activated with phytohemagglutinin (PHA) and assayed for viability 72 hours post activation (A) or the cells were activated with αCD3-αCD28 beads and then treated for 48 h with different combinations of auranofin and BSO (B). In (A), the effects of chloroquine are shown as a matter of comparison with a drug adopted in the clinic to limit immune hyperactivation. All concentrations are expressed in μM. In-vitro activity on activated CD4^+ T-cells and leukemia/lymphoma Methods. Resting CD4^+ T-cells, cultured T-cell leukemic Jurkat cells and Sup-T1 cells were left untreated or incubated for 24-72 hours with various concentrations of auranofin and/or buthionine sulfoximine (BSO), or chloroquine (only CD4^+ T-cells) or cisplatin (only Jurkat and Supt-T1 cells) CD4^+ T-cells were then activated by adding phytohemagglutinin (2 μg/mL). Alternatively, CD4^+ T-cells were first activated with anti-CD3/anti-CD28 beads and, after 72 hours, were left untreated or were incubated with auranofin and/or buthionine sulfoximine (BSO), or chloroquine. Cell viability was determined 24-72 hours post-activation with an MTT assay (CellTiter 96@ Non-Radioactive Cell Proliferation Assay) or MTS assay (CellTiter 960 AQueous One Solution Cell Proliferation Assay System; Promega). For the assay, 300×10^5 cells were re-suspended in 100 μL of medium and transferred to a 96-well plate. Cells were then incubated with 20 μL of a substrate solution (One Solution Reagent) for 3-4 hours in a CO2 (5%) incubator at 37° C. For the MTT assay, 100 μL of a Solubilization/Stop Solution were used to stop the reaction. Medium-only containing wells were included to serve as a blank control. Absorbance levels were recorded at 490 nm (MTS) or 570 nm (MTT) and, after subtraction of the blank, absorbance values were expressed as percentage of controls. Results. The results from the new dosage combinations were compared to the untreated cells as well as the cells treated with single drugs or “classical” dosages, in a multiple comparison analysis. Thus, the statistical significances shown are also significant compared to the untreated cells.

[14] = tested on: Jurkat T-cells; test: Viability of Jurkat T-cells (MTT assay, FIG. 4); type: cell-based
Experimental: FIG. 4 is a graph showing the viability of Jurkat T-cells treated with different concentrations of cisplatin, auranofin and/or buthionine sulfoximine (BSO). Viability was measured 48 hours after treatment with the drugs at the indicated concentrations with the MTT assay. Absorbance values were normalized over untreated controls and expressed as percentage. Concentrations are expressed in μM. Data are expressed as mean±SEM and were. Asterisks show the significant differences [*q<0.05; *q<0.01; q is the P value corrected for multiple comparisons by controlling the False Discovery Rate (threshold for significance=q=0.05)]. NS: non-significant. The synergistic index (SI) is expressed where significant differences exist in comparison with the single drug treatments.
as §1, §2

[15] = rats; cited from earlier work
[16] = submicromolar BSO with cisplatin 10 μM

SMILES: CC(=O)OC[C@H]1O[C@@H]([S-])[C@H](OC(C)=O)[C@@H](OC(C)=O)[C@@H]1OC(C)=O.CCP(CC)CC.[Au+] [auranofin]
- cell morphology [1]: morphological alterations linked to poor lymphoblastic cell viability
- synergism in terms of cell viability ([2]; only with 0.5 μM auranofin, with BSO (FIG. 2)): significant synergism
- cell morphology [3]: increased the aforementioned morphological alterations

SMILES: CCCCS(=N)(=O)CCC(N)C(=O)O (stereo not shown) [BSO, buthionine sulfoximine]
- effect of BSO pre-treatment on antitumor effects of cisplatin [4]: enhanced
- effect of BSO pre-treatment on antitumor activity of cisplatin [5]: increased the antitumor activity of cisplatin
- difference between BSO only and the same BSO concentration in the presence of auranofin ([2]; BSO 250 μM): no significant difference
- effect on cisplatin-induced cell death ([2]; BSO 250 μM with cisplatin): increased cisplatin-induced cell death
- synergistic index ([2]; BSO 250 μM with cisplatin (FIG. 6), effect antagonistic): > 1.1
- effect of BSO only ([2]; BSO 250 μM, no auranofin): cytotoxic effect
- effect of BSO on susceptibility to cisplatin ([2]; FIG. 6): chemosensitizing effect
- viability ([2]; auranofin and BSO 250 μM): low viability
- difference between combined drug treatment and the single drugs alone ([2]; submicromolar BSO with auranofin, e.g. auranofin 0.5+BSO 0.75 μM): extremely significant difference
- inhibition of cellular proliferation compared with BSO 250 μM [2, 16]: no statistical difference
- synergism of BSO and cisplatin ([2]; submicromolar BSO with cisplatin 10 μM (FIG. 6)): true synergism
- anticancer effect ([2]; submicromolar BSO with clinically-achievable auranofin concentrations (FIGS. 2 and 3)): direct anticancer effect
- BSO concentration required to achieve a 90% decrease in glutathione levels [6]: 6 µM
- cellular GSH [7]: Marked depletion
- effect of BSO pre-treatment on antitumor activity of cisplatin [8]: increased the antitumor activity of cisplatin
- viral reservoir after treatment [9]: < 10 copies of viral DNA/million cells
- effect on anti-cancer effects of cyclophosphamide, cisplatin or bleomycin [10]: increased the anti-cancer effects
- disease outcome following suspension of all therapies [11]: functional cure
- directly cytotoxic/anticancer effect [12]: not able to detect
- effect on viability compared with clinically achievable concentrations of Chloroquine ([13]; BSO 2 μM with auranofin): superior
- limitation of cell viability compared with classically-described BSO concentration (250 μM) ([13]; BSO 2 μM with auranofin): similar
- effect with auranofin in limiting the viability of activated CD4^+ T-cells ([13]; BSO as low as 2 μM in combination with auranofin, pre-incubated (FIG. 1A) or treated concomitantly to activation (FIG. 1B)): synergistic effect
- effects of BSO on viability at submicromolar concentrations ([13]; with auranofin, cells activated with αCD3-αCD28 beads, then treated 48 h (FIG. 1B)): still present
- synergism of BSO and cisplatin ([14]; BSO (submicromolar) with cisplatin (10 μM), 48 h (FIG. 4)): Significant synergism; also recorded: true synergism
- effect of auranofin and low concentrations of BSO on the anti-neoplastic effect of cisplatin ([14]; BSO with auranofin and cisplatin (FIGS. 4 and 5)): increase the anti-neoplastic effect of cisplatin
- effect of BSO on susceptibility to cisplatin ([14]; FIG. 4): chemosensitizing effect
- inhibition of cellular proliferation compared with BSO 250 μM [14, 16]: no statistical difference
- effect on nephrotoxicity of cisplatin [15]: reduce the nephrotoxicity
